Assay results taken from ChEMBL document CHEMBL1201862, “PubChem BioAssay data set” (2004).
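Each compound was tested at five concentrations against cells in 96-well plates for 48 hours. The concentration for 50% growth inhibition is given as GI50.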 The source made the active and inactive calls. No stated cut-off is given here; in the data, active = GI50 up to about 1.1 µM and inactive = higher.

Experiments:
Test in all cases: NCI anticancer screen, dose series, 48 h
HOP-18 = system: HOP-18
OVCAR-5 = system: OVCAR-5
SNB-75 = system: SNB-75
COLO 205 = system: COLO 205
IGROV-1 = system: IGROV-1
SN12C = system: SN12C
TK-10 = system: TK-10
M14 = system: M14
SK-MEL-2 = system: SK-MEL-2
EKVX = system: EKVX
Malme-3M = system: Malme-3M
U-251 = system: U-251
LXFL 529 = system: LXFL 529
HT-29 = system: HT-29
RXF 393 = system: RXF 393
UACC-62 = system: UACC-62
ACHN = system: ACHN
NCI-H460 = system: NCI-H460
MOLT-4 = system: MOLT-4
NCI-H522 = system: NCI-H522
OVCAR-4 = system: OVCAR-4
HOP-92 = system: HOP-92
KM-20L2 = system: KM-20L2
HCT-15 = system: HCT-15
LOX IMVI = system: LOX IMVI
CCRF-CEM = system: CCRF-CEM
SF-539 = system: SF-539
SK-MEL-5 = system: SK-MEL-5
OVCAR-3 = system: OVCAR-3
A549 = system: A549
SK-OV-3 = system: SK-OV-3
XF498 = system: XF498
K562 = system: K562
DMS-273 = system: DMS-273
NCI-H226 = system: NCI-H226
HOP-62 = system: HOP-62
DLD-1 = system: DLD-1
HCT-116 = system: HCT-116
KM12 = system: KM12
RPMI-8226 = system: RPMI-8226
M19-MEL = system: M19-MEL
CAKI-1 = system: CAKI-1
DMS-114 = system: DMS-114
UACC-257 = system: UACC-257
UO-31 = system: UO-31
SW-620 = system: SW-620
SF-268 = system: SF-268
SNB-19 = system: SNB-19
HL-60 = system: HL-60
SK-MEL-28 = system: SK-MEL-28
786-0 = system: 786-0
HCC 2998 = system: HCC 2998
NCI-H23 = system: NCI-H23
SNB-78 = system: SNB-78
A498 = system: A498
SF-295 = system: SF-295
OVCAR-8 = system: OVCAR-8

Structure (SMILES): CC1(C)OC(=O)C(=C2CCC(C(=O)Nc3cccc(C(F)(F)F)c3)N2)C(=O)O1 (configuration not stated)
- GI50 (HOP-18): > 100 µM (inactive)
- GI50 (OVCAR-5): > 100 µM (inactive)
- GI50 (SNB-75): > 100 µM (inactive)
- GI50 (COLO 205): > 100 µM (inactive)
- GI50 (IGROV-1): > 100 µM (inactive)
- GI50 (SN12C): > 100 µM (inactive)
- GI50 (TK-10): 86.9 µM (inactive)
- GI50 (M14): 64 µM (inactive)
- GI50 (SK-MEL-2): > 100 µM (inactive)
- GI50 (EKVX): 50.6 µM (inactive)
- GI50 (Malme-3M): 50.1 µM (inactive)
- GI50 (U-251): > 100 µM (inactive)
- GI50 (LXFL 529): 39.6 µM (inactive)
- GI50 (HT-29): 75.7 µM (inactive)
- GI50 (RXF 393): 84.1 µM (inactive)
- GI50 (UACC-62): 45.2 µM (inactive)
- GI50 (ACHN): 50.2 µM (inactive)
- GI50 (NCI-H460): 62.5 µM (inactive)
- GI50 (MOLT-4): 26.7 µM (inactive)
- GI50 (NCI-H522): 39.8 µM (inactive)
- GI50 (OVCAR-4): 61.4 µM (inactive)
- GI50 (HOP-92): 56.2 µM (inactive)
- GI50 (KM-20L2): 68.4 µM (inactive)
- GI50 (HCT-15): > 100 µM
- GI50 (LOX IMVI): 60.4 µM (inactive)
- GI50 (CCRF-CEM): 44.8 µM (inactive)
- GI50 (SF-539): > 100 µM (inactive)
- GI50 (SK-MEL-5): 30.1 µM (inactive)
- GI50 (OVCAR-3): 82 µM (inactive)
- GI50 (A549): > 100 µM (inactive)
- GI50 (SK-OV-3): > 100 µM (inactive)
- GI50 (XF498): 31.3 µM (inactive)
- GI50 (K562): 33.4 µM (inactive)
- GI50 (DMS-273): > 100 µM (inactive)
- GI50 (NCI-H226): 91 µM (inactive)
- GI50 (HOP-62): > 100 µM (inactive)
- GI50 (DLD-1): > 100 µM (inactive)
- GI50 (HCT-116): > 100 µM (inactive)
- GI50 (KM12): 60.3 µM (inactive)
- GI50 (RPMI-8226): 51.2 µM (inactive)
- GI50 (M19-MEL): 60.8 µM (inactive)
- GI50 (CAKI-1): 9.77 µM (inactive)
- GI50 (DMS-114): 37.4 µM (inactive)
- GI50 (UACC-257): 40.3 µM (inactive)
- GI50 (UO-31): > 100 µM (inactive)
- GI50 (SW-620): > 100 µM (inactive)
- GI50 (SF-268): > 100 µM (inactive)
- GI50 (SNB-19): 41.2 µM (inactive)
- GI50 (HL-60): 67.8 µM (inactive)
- GI50 (SK-MEL-28): 97.7 µM (inactive)
- GI50 (786-0): > 100 µM (inactive)
- GI50 (HCC 2998): 43.7 µM (inactive)
- GI50 (NCI-H23): > 100 µM (inactive)
- GI50 (SNB-78): 87.7 µM (inactive)
- GI50 (A498): 66.1 µM (inactive)
- GI50 (SF-295): 75.5 µM (inactive)
- GI50 (OVCAR-8): > 100 µM (inactive)
